What was measured:
SCC-9 HNC cell line = assay: Erlotinib sensitivity assay (CellTitre 96 cell viability); settings: Homo sapiens, SCC-9, 72 h, read-out: Erlotinib sensitivity (EC50)
HN5 HNC cell line = assay: as above; settings: Homo sapiens, HN5, 72 h, read-out: Erlotinib sensitivity (EC50)
[1] = cited from earlier work
FaDu HNC cell line = assay: Erlotinib sensitivity assay (CellTitre 96 cell viability); settings: Homo sapiens, 72 h, read-out: Erlotinib sensitivity (EC50)

Question: Which EC50 (SCC-9 HNC cell line) does the source give for C#Cc1cccc(Nc2ncnc3cc(OCCOC)c(OCCOC)cc23)c1 [erlotinib, N-(3-ethynylphenyl)-6,7-bis(2-methoxyethoxy)quinazolin-4-amine] here?
Answer: The EC50 was 2150 nM.

Question: What about the EC50 (HN5 HNC cell line) of the same molecule?
Answer: The EC50 was 640 nM.

Question: And the “Concentration in serum of patients treated with erlotinib” value [1]?
Answer: The value was 3000 to 10000 nM.

Question: What about the EC50 (FaDu HNC cell line) of the same molecule?
Answer: The EC50 was 8260 nM.

— patent US9051551B2, “Methods and compositions for increasing sensitivity to tyrosine kinase inhibitors” (The University of Western Australia, priority 2009, dated 2015)
